According to US20250230193A1, “CYCLIC COMPOUND HAVING SELECTIVE KRAS INHIBITORY EFFECT ON HRAS AND NRAS” (CHUGAI SEIYAKU KABUSHIKI KAISHA, priority 2022, published 2025):
Where a SMILES comes first, the peptide text is derived from it. Bridges are numbered along the chain shown (N, C = ends). [ ]: non-standard residue; d: D form. The star is where a group is joined. hPhe(3-Cl-4-CF3) = N[C@@H](CCc1ccc(C(F)(F)F)c(Cl)c1)C(=O)O; NPrPhe(4-CF3) = CCCN[C@@H](Cc1ccc(C(F)(F)F)cc1)C(=O)O; NMeGly(cPent) = CN[C@H](C(=O)O)C1CCCC1; Pro(4,4-F2) = O=C(O)[C@@H]1CC(F)(F)CN1; Hyp = O=C(O)[C@@H]1C[C@@H](O)CN1; NMeL = CN[C@@H](CC(C)C)C(=O)O; Morpholide = C1CN(*)CCO1; NMeA = CN[C@@H](C)C(=O)O; Ac5c = NC1(C(=O)O)CCCC1; Aze = O=C(O)[C@@H]1CCN1; Ac4c = NC1(C(=O)O)CCC1; Sar = CNCC(=O)O

Key:
[1] = molecular target: GDP-bound NRAS wild-type protein (Homo sapiens, UniProt P01111); experiment: Binding to NRAS by surface plasmon resonance (SPR), Single Cycle Kinetics; details: KD ratio NRAS/KRAS, SPR
[2] = molecular target: GDP-bound HRAS wild-type protein (Homo sapiens, UniProt P01112); experiment: Binding to HRAS by surface plasmon resonance (SPR), Single Cycle Kinetics; details: KD ratio HRAS/KRAS, SPR
Sequence of GDP-bound HRAS wild-type protein (P01112 whole entry): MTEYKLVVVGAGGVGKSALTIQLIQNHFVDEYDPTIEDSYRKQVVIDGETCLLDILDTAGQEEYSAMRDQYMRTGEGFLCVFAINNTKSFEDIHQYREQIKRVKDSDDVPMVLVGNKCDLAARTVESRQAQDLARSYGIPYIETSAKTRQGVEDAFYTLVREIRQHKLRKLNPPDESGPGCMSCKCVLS

Sequence of GDP-bound NRAS wild-type protein (P01111 whole entry): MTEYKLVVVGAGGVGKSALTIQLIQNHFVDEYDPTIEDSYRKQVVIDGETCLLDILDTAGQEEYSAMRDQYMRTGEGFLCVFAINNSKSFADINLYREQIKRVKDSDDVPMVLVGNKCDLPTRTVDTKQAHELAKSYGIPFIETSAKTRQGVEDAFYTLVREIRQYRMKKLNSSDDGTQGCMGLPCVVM

CCCN1C(=O)CN(C)C(=O)[C@@H]2CCN2C(=O)[C@H]([C@@H](C)CC)NC(=O)[C@H](CC(C)C)N(C)C(=O)C[C@@H](C(=O)N2CCOCC2)NC(=O)[C@H](C2CCCC2)N(C)C(=O)C2(CCCC2)NC(=O)[C@@H]2C[C@@H](OCC)CN2C(=O)[C@H](CCc2ccc(C(F)(F)F)c(Cl)c2)NC(=O)CN(C)C(=O)[C@@H]1Cc1ccc(C(F)(F)F)cc1 [PP0341] ([NMeL]I[Aze][Sar][NPrPhe(4-CF3)][Sar][hPhe(3-Cl-4-CF3)][Hyp](Et)[Ac5c][NMeGly(cPent)]D-Morpholide; lactam N-11)
NRAS/KRAS (ratio of KD for GDP-bound NRAS wild-type to KD for KRAS) [1]: B (a compound having 3 or more and less than 10 is denoted as B) | HRAS/KRAS (ratio of KD for GDP-bound HRAS wild-type to KD for KRAS) [2]: B (a compound having 3 or more and less than 10 is denoted as B)

CCCN1C(=O)CN(C)C(=O)[C@@H]2CCN2C(=O)[C@H]([C@@H](C)CC)NC(=O)[C@H](CC(C)C)N(C)C(=O)C[C@@H](C(=O)N2CCOCC2)NC(=O)[C@H](C2CCCC2)N(C)C(=O)C2(CCC2)NC(=O)[C@@H]2C[C@@H](OCC)CN2C(=O)[C@H](CCc2ccc(C(F)(F)F)c(Cl)c2)NC(=O)CN(C)C(=O)[C@@H]1Cc1ccc(C(F)(F)F)cc1 [PP0342] ([NMeL]I[Aze][Sar][NPrPhe(4-CF3)][Sar][hPhe(3-Cl-4-CF3)][Hyp](Et)[Ac4c][NMeGly(cPent)]D-Morpholide; lactam N-11)
NRAS/KRAS (ratio of KD for GDP-bound NRAS wild-type to KD for KRAS) [1]: B (a compound having 3 or more and less than 10 is denoted as B) | HRAS/KRAS (ratio of KD for GDP-bound HRAS wild-type to KD for KRAS) [2]: B (a compound having 3 or more and less than 10 is denoted as B)

CCCN1C(=O)[C@@H]2CCN2C(=O)[C@H](C)N(C)C(=O)[C@H]([C@@H](C)CC)NC(=O)[C@H](CC(C)C)N(C)C(=O)C[C@@H](C(=O)N2CCOCC2)NC(=O)[C@H](C2CCCC2)N(C)C(=O)C2(CCCC2)NC(=O)[C@@H]2CCCN2C(=O)[C@H](CCc2ccc(C(F)(F)F)c(Cl)c2)NC(=O)CN(C)C(=O)[C@@H]1Cc1ccc(C(F)(F)F)cc1 [PP0343] ([NMeL]I[NMeA][Aze][NPrPhe(4-CF3)][Sar][hPhe(3-Cl-4-CF3)]P[Ac5c][NMeGly(cPent)]D-Morpholide; lactam N-11)
NRAS/KRAS (ratio of KD for GDP-bound NRAS wild-type to KD for KRAS) [1]: C (A compound having a KD ratio of 0.1 or more and less than 3 is denoted as C) | HRAS/KRAS (ratio of KD for GDP-bound HRAS wild-type to KD for KRAS) [2]: B (a compound having 3 or more and less than 10 is denoted as B)

CCCN1C(=O)[C@@H]2CCN2C(=O)[C@H](C)N(C)C(=O)[C@H]([C@@H](C)CC)NC(=O)[C@H](CC(C)C)N(C)C(=O)C[C@@H](C(=O)N2CCOCC2)NC(=O)[C@H](C2CCCC2)N(C)C(=O)C2(CCC2)NC(=O)[C@@H]2CCCN2C(=O)[C@H](CCc2ccc(C(F)(F)F)c(Cl)c2)NC(=O)CN(C)C(=O)[C@@H]1Cc1ccc(C(F)(F)F)cc1 [PP0344] ([NMeL]I[NMeA][Aze][NPrPhe(4-CF3)][Sar][hPhe(3-Cl-4-CF3)]P[Ac4c][NMeGly(cPent)]D-Morpholide; lactam N-11)
NRAS/KRAS (ratio of KD for GDP-bound NRAS wild-type to KD for KRAS) [1]: C (A compound having a KD ratio of 0.1 or more and less than 3 is denoted as C) | HRAS/KRAS (ratio of KD for GDP-bound HRAS wild-type to KD for KRAS) [2]: B (a compound having 3 or more and less than 10 is denoted as B)

CCCN1C(=O)[C@@H]2CCN2C(=O)[C@H](C)N(C)C(=O)[C@H]([C@@H](C)CC)NC(=O)[C@H](CC(C)C)N(C)C(=O)C[C@@H](C(=O)N2CCOCC2)NC(=O)[C@H](C2CCCC2)N(C)C(=O)C2(CCCC2)NC(=O)[C@@H]2CC(F)(F)CN2C(=O)[C@H](CCc2ccc(C(F)(F)F)c(Cl)c2)NC(=O)CN(C)C(=O)[C@@H]1Cc1ccc(C(F)(F)F)cc1 [PP0345] ([NMeL]I[NMeA][Aze][NPrPhe(4-CF3)][Sar][hPhe(3-Cl-4-CF3)][Pro(4,4-F2)][Ac5c][NMeGly(cPent)]D-Morpholide; lactam N-11)
NRAS/KRAS (ratio of KD for GDP-bound NRAS wild-type to KD for KRAS) [1]: C (A compound having a KD ratio of 0.1 or more and less than 3 is denoted as C) | HRAS/KRAS (ratio of KD for GDP-bound HRAS wild-type to KD for KRAS) [2]: B (a compound having 3 or more and less than 10 is denoted as B)

CCCN1C(=O)[C@@H]2CCN2C(=O)[C@H](C)N(C)C(=O)[C@H]([C@@H](C)CC)NC(=O)[C@H](CC(C)C)N(C)C(=O)C[C@@H](C(=O)N2CCOCC2)NC(=O)[C@H](C2CCCC2)N(C)C(=O)C2(CCC2)NC(=O)[C@@H]2CC(F)(F)CN2C(=O)[C@H](CCc2ccc(C(F)(F)F)c(Cl)c2)NC(=O)CN(C)C(=O)[C@@H]1Cc1ccc(C(F)(F)F)cc1 [PP0346] ([NMeL]I[NMeA][Aze][NPrPhe(4-CF3)][Sar][hPhe(3-Cl-4-CF3)][Pro(4,4-F2)][Ac4c][NMeGly(cPent)]D-Morpholide; lactam N-11)
NRAS/KRAS (ratio of KD for GDP-bound NRAS wild-type to KD for KRAS) [1]: C (A compound having a KD ratio of 0.1 or more and less than 3 is denoted as C) | HRAS/KRAS (ratio of KD for GDP-bound HRAS wild-type to KD for KRAS) [2]: B (a compound having 3 or more and less than 10 is denoted as B)

CCCN1C(=O)[C@@H]2CCN2C(=O)[C@H](C)N(C)C(=O)[C@H]([C@@H](C)CC)NC(=O)[C@H](CC(C)C)N(C)C(=O)C[C@@H](C(=O)N2CCOCC2)NC(=O)[C@H](C2CCCC2)N(C)C(=O)C2(CCCC2)NC(=O)[C@@H]2C[C@@H](OCC)CN2C(=O)[C@H](CCc2ccc(C(F)(F)F)c(Cl)c2)NC(=O)CN(C)C(=O)[C@@H]1Cc1ccc(C(F)(F)F)cc1 [PP0347] ([NMeL]I[NMeA][Aze][NPrPhe(4-CF3)][Sar][hPhe(3-Cl-4-CF3)][Hyp](Et)[Ac5c][NMeGly(cPent)]D-Morpholide; lactam N-11)
NRAS/KRAS (ratio of KD for GDP-bound NRAS wild-type to KD for KRAS) [1]: C (A compound having a KD ratio of 0.1 or more and less than 3 is denoted as C) | HRAS/KRAS (ratio of KD for GDP-bound HRAS wild-type to KD for KRAS) [2]: B (a compound having 3 or more and less than 10 is denoted as B)

CCCN1C(=O)[C@@H]2CCN2C(=O)[C@H](C)N(C)C(=O)[C@H]([C@@H](C)CC)NC(=O)[C@H](CC(C)C)N(C)C(=O)C[C@@H](C(=O)N2CCOCC2)NC(=O)[C@H](C2CCCC2)N(C)C(=O)C2(CCC2)NC(=O)[C@@H]2C[C@@H](OCC)CN2C(=O)[C@H](CCc2ccc(C(F)(F)F)c(Cl)c2)NC(=O)CN(C)C(=O)[C@@H]1Cc1ccc(C(F)(F)F)cc1 [PP0348] ([NMeL]I[NMeA][Aze][NPrPhe(4-CF3)][Sar][hPhe(3-Cl-4-CF3)][Hyp](Et)[Ac4c][NMeGly(cPent)]D-Morpholide; lactam N-11)
NRAS/KRAS (ratio of KD for GDP-bound NRAS wild-type to KD for KRAS) [1]: C (A compound having a KD ratio of 0.1 or more and less than 3 is denoted as C) | HRAS/KRAS (ratio of KD for GDP-bound HRAS wild-type to KD for KRAS) [2]: B (a compound having 3 or more and less than 10 is denoted as B)

CCCN1C(=O)[C@@H]2CCN2C(=O)CN(C)C(=O)[C@H]([C@@H](C)CC)NC(=O)[C@H](CC(C)C)N(C)C(=O)C[C@@H](C(=O)N2CCOCC2)NC(=O)[C@H](C2CCCC2)N(C)C(=O)C2(CCCC2)NC(=O)[C@@H]2CCCN2C(=O)[C@H](CCc2ccc(C(F)(F)F)c(Cl)c2)NC(=O)CN(C)C(=O)[C@@H]1Cc1ccc(C(F)(F)F)cc1 [PP0349] ([NMeL]I[Sar][Aze][NPrPhe(4-CF3)][Sar][hPhe(3-Cl-4-CF3)]P[Ac5c][NMeGly(cPent)]D-Morpholide; lactam N-11)
NRAS/KRAS (ratio of KD for GDP-bound NRAS wild-type to KD for KRAS) [1]: C (A compound having a KD ratio of 0.1 or more and less than 3 is denoted as C) | HRAS/KRAS (ratio of KD for GDP-bound HRAS wild-type to KD for KRAS) [2]: B (a compound having 3 or more and less than 10 is denoted as B)

CCCN1C(=O)[C@@H]2CCN2C(=O)CN(C)C(=O)[C@H]([C@@H](C)CC)NC(=O)[C@H](CC(C)C)N(C)C(=O)C[C@@H](C(=O)N2CCOCC2)NC(=O)[C@H](C2CCCC2)N(C)C(=O)C2(CCC2)NC(=O)[C@@H]2CCCN2C(=O)[C@H](CCc2ccc(C(F)(F)F)c(Cl)c2)NC(=O)CN(C)C(=O)[C@@H]1Cc1ccc(C(F)(F)F)cc1 [PP0350] ([NMeL]I[Sar][Aze][NPrPhe(4-CF3)][Sar][hPhe(3-Cl-4-CF3)]P[Ac4c][NMeGly(cPent)]D-Morpholide; lactam N-11)
NRAS/KRAS (ratio of KD for GDP-bound NRAS wild-type to KD for KRAS) [1]: C (A compound having a KD ratio of 0.1 or more and less than 3 is denoted as C) | HRAS/KRAS (ratio of KD for GDP-bound HRAS wild-type to KD for KRAS) [2]: B (a compound having 3 or more and less than 10 is denoted as B)

CCCN1C(=O)[C@@H]2CCN2C(=O)CN(C)C(=O)[C@H]([C@@H](C)CC)NC(=O)[C@H](CC(C)C)N(C)C(=O)C[C@@H](C(=O)N2CCOCC2)NC(=O)[C@H](C2CCCC2)N(C)C(=O)C2(CCCC2)NC(=O)[C@@H]2CC(F)(F)CN2C(=O)[C@H](CCc2ccc(C(F)(F)F)c(Cl)c2)NC(=O)CN(C)C(=O)[C@@H]1Cc1ccc(C(F)(F)F)cc1 [PP0351] ([NMeL]I[Sar][Aze][NPrPhe(4-CF3)][Sar][hPhe(3-Cl-4-CF3)][Pro(4,4-F2)][Ac5c][NMeGly(cPent)]D-Morpholide; lactam N-11)
NRAS/KRAS (ratio of KD for GDP-bound NRAS wild-type to KD for KRAS) [1]: C (A compound having a KD ratio of 0.1 or more and less than 3 is denoted as C) | HRAS/KRAS (ratio of KD for GDP-bound HRAS wild-type to KD for KRAS) [2]: B (a compound having 3 or more and less than 10 is denoted as B)

CCCN1C(=O)[C@@H]2CCN2C(=O)CN(C)C(=O)[C@H]([C@@H](C)CC)NC(=O)[C@H](CC(C)C)N(C)C(=O)C[C@@H](C(=O)N2CCOCC2)NC(=O)[C@H](C2CCCC2)N(C)C(=O)C2(CCC2)NC(=O)[C@@H]2CC(F)(F)CN2C(=O)[C@H](CCc2ccc(C(F)(F)F)c(Cl)c2)NC(=O)CN(C)C(=O)[C@@H]1Cc1ccc(C(F)(F)F)cc1 [PP0352] ([NMeL]I[Sar][Aze][NPrPhe(4-CF3)][Sar][hPhe(3-Cl-4-CF3)][Pro(4,4-F2)][Ac4c][NMeGly(cPent)]D-Morpholide; lactam N-11)
NRAS/KRAS (ratio of KD for GDP-bound NRAS wild-type to KD for KRAS) [1]: C (A compound having a KD ratio of 0.1 or more and less than 3 is denoted as C) | HRAS/KRAS (ratio of KD for GDP-bound HRAS wild-type to KD for KRAS) [2]: B (a compound having 3 or more and less than 10 is denoted as B)
